Test results as given in PubChem BioAssay (NCI).
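Protocol summary: plate cells (96-well), add compound at 5 concentrations, incubate 48 h, interpolate endpoints linearly. At the GI50, growth is halved. TGI denotes the concentration required for complete inhibition of growth.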

Experiments:
Assay in all cases: NCI tumour cell line growth inhibition, 48 h
[1] = test system: 786-0 renal
[2] = test system: A498 renal
[3] = test system: A549 NSCLC
[4] = test system: ACHN renal
[5] = test system: BT-549 breast
[6] = test system: CAKI-1 renal
[7] = test system: CCRF-CEM leukemia
[8] = test system: COLO 205 colon
[9] = test system: DU-145 prostate
[10] = test system: EKVX NSCLC
[11] = test system: HCC-2998 colon
[12] = test system: HCT-116 colon
[13] = test system: HCT-15 colon
[14] = test system: HL-60(TB) leukemia
[15] = test system: HOP-62 NSCLC
[16] = test system: HOP-92 NSCLC
[17] = test system: HS 578T breast
[18] = test system: HT29 colon
[19] = test system: IGROV1 ovarian
[20] = test system: K-562 leukemia
[21] = test system: KM12 colon
[22] = test system: LOX IMVI melanoma
[23] = test system: M14 melanoma
[24] = test system: MALME-3M melanoma
[25] = test system: MCF7 breast
[26] = test system: MDA-MB-231 breast
[27] = test system: MDA-MB-435
[28] = test system: MOLT-4 leukemia
[29] = test system: NCI-H226 lung
[30] = test system: NCI-H23 lung
[31] = test system: NCI-H460 lung
[32] = test system: NCI-H522 lung
[33] = test system: NCI/ADR-RES ovarian
[34] = test system: OVCAR-3 ovarian
[35] = test system: OVCAR-4 ovarian
[36] = test system: OVCAR-5 ovarian
[37] = test system: OVCAR-8 ovarian
[38] = test system: PC-3 prostate
[39] = test system: RPMI-8226 leukemia
[40] = test system: RXF 393 renal
[41] = test system: SF-268 CNS
[42] = test system: SF-295 CNS
[43] = test system: SF-539 CNS
[44] = test system: SK-MEL-2 melanoma
[45] = test system: SK-MEL-28 melanoma
[46] = test system: SK-MEL-5 melanoma
[47] = test system: SK-OV-3 ovarian
[48] = test system: SN12C renal
[49] = test system: SNB-19 CNS
[50] = test system: SNB-75 CNS
[51] = test system: SR leukemia
[52] = test system: SW-620 colon
[53] = test system: T-47D breast
[54] = test system: TK-10 renal
[55] = test system: U251 CNS
[56] = test system: UACC-257 melanoma
[57] = test system: UACC-62 melanoma
[58] = test system: UO-31 renal

Question: `COc1ccc2c(c1OC)-c1c(c3ccc([N+](=O)[O-])cc3c(=O)n1CCCN)C2=O` was tested. Which GI50 [1] did it give?
Answer: The GI50 was 4.76 µM.

Question: And the TGI [1]?
Answer: The TGI was 9.22 µM.

Question: What about the GI50 [2] of the same compound?
Answer: Its GI50 is 3.03 µM.

Question: What about the TGI [2] of the same compound?
Answer: The TGI was 14.3 µM.

Question: What about the GI50 [3] of the same compound?
Answer: Its GI50 is 4.37 µM.

Question: What about the TGI [3] of the same compound?
Answer: Its TGI is 9.27 µM.

Question: And the GI50 [4]?
Answer: Its GI50 is 0.749 µM.

Question: And the TGI [4]?
Answer: Its TGI is 3.33 µM.

Question: And the GI50 [5]?
Answer: The GI50 was 4.19 µM.

Question: What about the TGI [5] of the same compound?
Answer: Its TGI is 9.24 µM.

Question: And the GI50 [6]?
Answer: Its GI50 is 9.49 µM.

Question: And the TGI [6]?
Answer: The TGI was 24.7 µM.

Question: What about the GI50 [7] of the same compound?
Answer: The GI50 was 1.27 µM.

Question: And the TGI [7]?
Answer: Its TGI is 3.64 µM.

Question: And the GI50 [8]?
Answer: The GI50 was greater than 100 µM.

Question: And the TGI [8]?
Answer: The TGI was greater than 100 µM.

Question: And the GI50 [9]?
Answer: Its GI50 is 3.36 µM.

Question: What about the TGI [9] of the same compound?
Answer: Its TGI is 7.8 µM.

Question: What about the GI50 [10] of the same compound?
Answer: Its GI50 is 4.98 µM.

Question: What about the TGI [10] of the same compound?
Answer: The TGI was 11 µM.

Question: And the GI50 [11]?
Answer: Its GI50 is 3.87 µM.

Question: And the TGI [11]?
Answer: Its TGI is 7.8 µM.

Question: And the GI50 [12]?
Answer: The GI50 was 4.99 µM.

Question: What about the TGI [12] of the same compound?
Answer: Its TGI is 9.23 µM.

Question: And the GI50 [13]?
Answer: Its GI50 is 3.37 µM.

Question: What about the TGI [13] of the same compound?
Answer: Its TGI is 7.11 µM.

Question: And the GI50 [14]?
Answer: The GI50 was 1.35 µM.

Question: What about the TGI [14] of the same compound?
Answer: Its TGI is 2.63 µM.

Question: What about the GI50 [15] of the same compound?
Answer: Its GI50 is 10.7 µM.

Question: What about the TGI [15] of the same compound?
Answer: The TGI was 23.9 µM.

Question: What about the GI50 [16] of the same compound?
Answer: The GI50 was 12.3 µM.

Question: What about the TGI [16] of the same compound?
Answer: The TGI was 27.1 µM.

Question: What about the GI50 [17] of the same compound?
Answer: The GI50 was 5.32 µM.

Question: What about the TGI [17] of the same compound?
Answer: The TGI was 12 µM.

Question: And the GI50 [18]?
Answer: Its GI50 is 1.6 µM.

Question: And the TGI [18]?
Answer: Its TGI is 8 µM.

Question: What about the GI50 [19] of the same compound?
Answer: The GI50 was 2.02 µM.

Question: What about the TGI [19] of the same compound?
Answer: Its TGI is 6.78 µM.

Question: What about the GI50 [20] of the same compound?
Answer: The GI50 was 1.01 µM.

Question: And the TGI [20]?
Answer: The TGI was 3.94 µM.

Question: And the GI50 [21]?
Answer: The GI50 was 4.31 µM.

Question: What about the TGI [21] of the same compound?
Answer: Its TGI is 10.7 µM.

Question: What about the GI50 [22] of the same compound?
Answer: The GI50 was 3.18 µM.

Question: What about the TGI [22] of the same compound?
Answer: Its TGI is 7.26 µM.

Question: What about the GI50 [23] of the same compound?
Answer: Its GI50 is 7.27 µM.

Question: What about the TGI [23] of the same compound?
Answer: The TGI was 20.8 µM.

Question: What about the GI50 [24] of the same compound?
Answer: The GI50 was 4.97 µM.

Question: What about the TGI [24] of the same compound?
Answer: The TGI was 10.5 µM.

Question: And the GI50 [25]?
Answer: Its GI50 is 1.89 µM.

Question: What about the TGI [25] of the same compound?
Answer: Its TGI is 13.9 µM.

Question: And the GI50 [26]?
Answer: Its GI50 is 1.87 µM.

Question: And the TGI [26]?
Answer: Its TGI is 3.95 µM.

Question: What about the GI50 [27] of the same compound?
Answer: Its GI50 is 12.7 µM.

Question: And the TGI [27]?
Answer: The TGI was 28.2 µM.

Question: And the GI50 [28]?
Answer: The GI50 was 0.692 µM.

Question: And the TGI [28]?
Answer: The TGI was 3.68 µM.

Question: And the GI50 [29]?
Answer: The GI50 was 3.95 µM.

Question: What about the TGI [29] of the same compound?
Answer: The TGI was 8.79 µM.

Question: And the GI50 [30]?
Answer: Its GI50 is 4.7 µM.

Question: What about the TGI [30] of the same compound?
Answer: The TGI was 9.19 µM.

Question: What about the GI50 [31] of the same compound?
Answer: Its GI50 is 3.47 µM.

Question: And the TGI [31]?
Answer: The TGI was 12.3 µM.

Question: And the GI50 [32]?
Answer: The GI50 was 3.54 µM.

Question: And the TGI [32]?
Answer: Its TGI is 9.33 µM.

Question: And the GI50 [33]?
Answer: The GI50 was 4.83 µM.

Question: What about the TGI [33] of the same compound?
Answer: The TGI was 9.76 µM.

Question: And the GI50 [34]?
Answer: Its GI50 is 16.2 µM.

Question: And the TGI [34]?
Answer: The TGI was 32.6 µM.

Question: And the GI50 [35]?
Answer: The GI50 was 5.49 µM.

Question: And the TGI [35]?
Answer: The TGI was 12.1 µM.

Question: And the GI50 [36]?
Answer: Its GI50 is 5.31 µM.

Question: And the TGI [36]?
Answer: Its TGI is 9.74 µM.

Question: What about the GI50 [37] of the same compound?
Answer: The GI50 was 3.53 µM.

Question: And the TGI [37]?
Answer: The TGI was 12.9 µM.

Question: And the GI50 [38]?
Answer: Its GI50 is 4.59 µM.

Question: What about the TGI [38] of the same compound?
Answer: The TGI was 10.5 µM.

Question: What about the GI50 [39] of the same compound?
Answer: Its GI50 is 1.01 µM.

Question: What about the TGI [39] of the same compound?
Answer: The TGI was 3.32 µM.

Question: And the GI50 [40]?
Answer: The GI50 was 4.32 µM.

Question: And the TGI [40]?
Answer: Its TGI is 10.1 µM.

Question: What about the GI50 [41] of the same compound?
Answer: Its GI50 is 3.54 µM.

Question: What about the TGI [41] of the same compound?
Answer: The TGI was 13.6 µM.

Question: And the GI50 [42]?
Answer: The GI50 was 5.72 µM.

Question: And the TGI [42]?
Answer: The TGI was 11.5 µM.

Question: And the GI50 [43]?
Answer: Its GI50 is 4.42 µM.

Question: What about the TGI [43] of the same compound?
Answer: The TGI was 9.02 µM.

Question: What about the GI50 [44] of the same compound?
Answer: Its GI50 is 4.56 µM.

Question: And the TGI [44]?
Answer: The TGI was 9.77 µM.

Question: And the GI50 [45]?
Answer: The GI50 was 5.34 µM.

Question: And the TGI [45]?
Answer: The TGI was 10.4 µM.

Question: And the GI50 [46]?
Answer: Its GI50 is 4.33 µM.

Question: What about the TGI [46] of the same compound?
Answer: Its TGI is 8.82 µM.

Question: And the GI50 [47]?
Answer: Its GI50 is 7.9 µM.

Question: What about the TGI [47] of the same compound?
Answer: Its TGI is 17.6 µM.

Question: And the GI50 [48]?
Answer: Its GI50 is 3.79 µM.

Question: And the TGI [48]?
Answer: Its TGI is 7.86 µM.

Question: And the TGI [49]?
Answer: Its TGI is greater than 20.2 µM.

Question: What about the TGI [50] of the same compound?
Answer: The TGI was 1.56 µM.

Question: What about the GI50 [51] of the same compound?
Answer: The GI50 was 0.1 µM.

Question: And the TGI [51]?
Answer: Its TGI is 0.272 µM.

Question: What about the GI50 [52] of the same compound?
Answer: The GI50 was 0.573 µM.

Question: And the TGI [52]?
Answer: The TGI was 4.81 µM.

Question: What about the TGI [53] of the same compound?
Answer: The TGI was greater than 20.1 µM.

Question: And the GI50 [54]?
Answer: The GI50 was 5.72 µM.

Question: What about the TGI [54] of the same compound?
Answer: Its TGI is 12 µM.

Question: And the GI50 [55]?
Answer: Its GI50 is 1.83 µM.

Question: What about the TGI [55] of the same compound?
Answer: The TGI was 5.76 µM.

Question: And the GI50 [56]?
Answer: Its GI50 is 4.97 µM.

Question: And the TGI [56]?
Answer: The TGI was 9.74 µM.

Question: And the GI50 [57]?
Answer: Its GI50 is 3.52 µM.

Question: And the TGI [57]?
Answer: The TGI was 7.32 µM.

Question: And the GI50 [58]?
Answer: The GI50 was 3.81 µM.

Question: What about the TGI [58] of the same compound?
Answer: The TGI was 7.89 µM.
